Data: patent publication US7217710B2, “Substituted pyrazolopyrimidines” (SmithKline Beecham Corporation, priority 2001, dated 2007)

Legend:
Assay type in all cases: biochemical
[1] = target: T1, GST-VEGFR2 (Homo sapiens, UniProt P35968); experiment: VEGF-R2 Enzyme Assay (VEGF-E2), LANCE method; settings: for IC50: read-out: VEGFR2 PIC50 VEGFR-E2 assay
T1 construct: GST-VEGFR2, baculovirus expressed recombinant constructs of the intracellular domains; made in house

[2] = target: T2, GST-TIE2 (intracellular domains of human TIE2) (Homo sapiens, UniProt Q02763); experiment: TIE-2 Enzyme Assay (TIE2-E2), LANCE method; settings: for IC50: read-out: TIE2 PIC50 TIE2-E2 assay
T2 construct: made in house
Text: TIE-2 Enzyme Assay (TIE2-E2
The TIE-2 enzyme assay uses the LANCE method (Wallac) and GST-TIE2, baculovirus-expressed recombinant constructs of the intracellular domains of human TIE2 (amino acids 762–1104, GenBank Accession # L06139) tagged by GST). The method measures the ability of the purified enzymes to catalyse the transfer of the γ-phosphate from ATP onto tyrosine residues in a biotinylated synthetic peptide, D1–15 (biotin-C6-LEARLVAYEGWVAGKKKamide). This peptide phosphorylation is detected using the following procedure: for enzyme preactivation, GST-TIE2 is incubated for 2 hours at room temperature with 80 μM ATP, 10 mM MgCl2, 0.1 mg/ml BSA, 0.01% Tween 20 and 1 mM DTT in 100 mM HEPES buffer (pH7.4). 5 nM preactivated GST-TIE2 is incubated for 2 hours at room temperature in 96 well plates with 1 uM D1–15 peptide, 80 uM ATP, 10 mM MgCl2, 0.1 mg/ml BSA, 0.01% Tween 20 and titrated test compound (diluted from a 10 mM stock in DMSO, final DMSO concentration is 2.4%) in 100 mM HEPES (pH7.4). The reaction is stopped by the addition of EDTA (final concentration 45 mM). Streptavidin linked-APC (allophycocyanin, PerkinElmer) and europium-labeled anti-phosphotyrosine antibody (PerkinElmer) are then added at the final concentration of 8 nM and 1 nM, respectively. The APC signal is measured using an Wallac Multilabel 1420 counter. (Wallac Berthold Japan). The percent inhibition of activity is calculated relative to blank control wells. The concentration of test compound that inhibits 50% of activity (IC50) is interpolated using nonlinear regression (Levernberg-Marquardt) and the equation, y=Vmax (1−x/(K+x))+Y2, where “K” is equal to the IC50. The IC50 values are converted to pIC50 values, i.e., −log IC50 in Molar concentration.

[3] = target: T3, catalytic domain of human VEGFR3 (Homo sapiens, UniProt P35916, H890Q); experiment: VEGFR-3 Homogenous Time-Resolved Fluorescence Assay (VEGFR-3-HTRF); settings: for IC50: read-out: VEGFR3 PIC50 VEGFR-3-HTRF assay
T3 construct: made in house; host or cells: Sf9 insect cells (baculovirus, pFastBac1)
Text: VEGFR—3-Homogenous Time-Resolved Fluorescence Assay (VEGFR-3-HTRF)
This assay assesses Vascular Endothelial Growth Factor 3 (VEGFR3) tyrosine kinase inhibitory activity in substrate phosphorylation assays. The assay examines the ability of small molecule organic compounds to inhibit the tyrosine phosphorylation of a peptide substrate.
The substrate phosphorylation assays use the VEGFR3 catalytic domain, which is expressed in Sf. 9 insect cells as an amino-terminal GST-tagged fusion protein. The catalytic domain of human VEGFR3 (AA residues #819–1298 based upon GenBank Accession #XM003852) is cloned by PCR from human Placenta Marathon Ready cDNA (Clontech). The PCR product is subcloned into pFastBac1 vector containing an N-terminal GST tag. The resulting pFB/GST/VEGFR3icd vector is used to generate a recombinant baculovirus for protein expression. The VEGFR3 catalytic domain translated sequence is:
Autophosphorylation allows enzymes to be fully activated prior to addition to peptide substrates. The assays are performed using enzyme that has been activated by autophosphorylation via preincubation in buffer with ATP and magnesium. Activated enzyme is then diluted and added to titrated compound and the substrate mix.
200 nM VEGFR3 enzyme is activated for 45 minutes at room temperature by incubating the enzyme in buffer containing 100 mM HEPES (pH7.2), 75 μM ATP, 0.3 mM DTT, 0.1 mg/mL BSA, and 10 mM MgCl2. After activation, VEGFR3 is diluted 100-fold into 2× dilution buffer: 200 mM HEPES (pH 7.5), 0.2 mg/mL BSA, 0.6 mM DTT. 20 μL of the diluted enzyme mix is added to 20 μL of 2× substrate mix (150 μM ATP, 20 mM MgCl2, 0.72 μM biotinylated peptide) in the assay plates. Final assay conditions are: 100 mM HEPES (pH 7.2), 75 μM ATP, 10 mM MgCl2, 0.1 mg/mL BSA, 0.3 mM DTT, 0.36 μM biotinylated peptide, and 1 nM VEGFR3 enzyme. Assay plates are incubated for 1.5 hours at room temperature before the addition of 30 μL 100 mM EDTA to the wells to stop the enzymatic reaction. 40 μL/well of HTRF mix are then added to the assay plates for the detection of phosphorylated substrate. Final assay concentrations are: 100 mM HEPES (pH7.2), 0.1 mg/mL BSA, 15 nM streptavidin-labeled allophycocyanin (PerkinElmer), and 1 nM europium-labeled anti-phosphotyrosine antibody (PerkinElmer). Assay plates are left unsealed and are counted in a Wallac Multilabel Counter 1420 (PerkinElmer).
The data for dose responses are plotted as % Control calculated with the data reduction formula 100*(U1–C2)/(C1–C2) versus concentration of compound where U is the unknown value, C1 is the average control value obtained for DMSO , and C2 is the average control value obtained for 0.1M EDTA. Data are fitted to the curve described by: y=((Vmax*x)/(K+x)) where Vmax is the upper asymptote and K is the IC50.

T1 sequence (P35968 786-1356 limits assumed): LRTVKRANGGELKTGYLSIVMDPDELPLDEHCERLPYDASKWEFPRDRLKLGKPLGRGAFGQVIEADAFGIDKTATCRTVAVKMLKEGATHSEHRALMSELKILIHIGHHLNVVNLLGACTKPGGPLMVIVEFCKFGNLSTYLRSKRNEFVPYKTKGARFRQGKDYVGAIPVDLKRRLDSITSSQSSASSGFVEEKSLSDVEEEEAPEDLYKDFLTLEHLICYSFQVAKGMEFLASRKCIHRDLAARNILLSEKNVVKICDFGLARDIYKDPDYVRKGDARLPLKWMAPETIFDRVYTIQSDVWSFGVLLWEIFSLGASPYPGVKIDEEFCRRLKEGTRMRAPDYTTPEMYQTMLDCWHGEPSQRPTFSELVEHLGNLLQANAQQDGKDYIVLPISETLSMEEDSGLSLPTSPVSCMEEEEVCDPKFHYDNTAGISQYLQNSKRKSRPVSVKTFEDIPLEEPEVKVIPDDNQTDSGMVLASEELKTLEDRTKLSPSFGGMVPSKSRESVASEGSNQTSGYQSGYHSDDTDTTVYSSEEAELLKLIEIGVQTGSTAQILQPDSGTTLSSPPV
T3 sequence (P35916 with tags, fused parts or gaps isoform P35916-1 H890Q): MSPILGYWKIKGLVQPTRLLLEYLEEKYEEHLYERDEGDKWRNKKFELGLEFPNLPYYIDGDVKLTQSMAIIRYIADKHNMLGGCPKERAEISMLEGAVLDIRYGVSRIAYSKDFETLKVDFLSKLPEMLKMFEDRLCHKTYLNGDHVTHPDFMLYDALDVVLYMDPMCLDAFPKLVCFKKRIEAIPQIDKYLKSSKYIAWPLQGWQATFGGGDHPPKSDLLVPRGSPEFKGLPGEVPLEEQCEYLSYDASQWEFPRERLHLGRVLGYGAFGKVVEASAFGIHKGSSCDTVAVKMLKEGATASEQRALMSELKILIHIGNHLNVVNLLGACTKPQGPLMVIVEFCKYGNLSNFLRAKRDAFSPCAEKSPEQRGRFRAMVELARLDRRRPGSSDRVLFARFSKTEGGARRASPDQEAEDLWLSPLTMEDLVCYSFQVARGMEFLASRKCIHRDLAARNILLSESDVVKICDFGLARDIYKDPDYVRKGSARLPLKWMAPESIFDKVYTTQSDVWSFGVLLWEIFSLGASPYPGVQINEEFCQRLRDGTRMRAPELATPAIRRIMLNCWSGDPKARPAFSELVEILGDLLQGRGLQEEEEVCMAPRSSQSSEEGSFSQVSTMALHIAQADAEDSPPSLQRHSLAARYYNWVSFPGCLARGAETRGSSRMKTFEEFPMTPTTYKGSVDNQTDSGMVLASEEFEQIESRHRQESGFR
T2 sequence (Q02763 762-1104): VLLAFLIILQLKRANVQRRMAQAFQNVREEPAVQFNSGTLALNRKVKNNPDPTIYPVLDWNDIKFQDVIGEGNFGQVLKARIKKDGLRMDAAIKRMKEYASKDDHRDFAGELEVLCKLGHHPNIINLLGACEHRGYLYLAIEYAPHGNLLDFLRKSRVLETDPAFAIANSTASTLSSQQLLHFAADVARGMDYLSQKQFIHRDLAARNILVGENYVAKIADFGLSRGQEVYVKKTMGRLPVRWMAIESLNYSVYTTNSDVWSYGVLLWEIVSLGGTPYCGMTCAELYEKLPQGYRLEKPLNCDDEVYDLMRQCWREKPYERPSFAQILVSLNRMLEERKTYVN

Compound	IC50 [1]	IC50 [2]	IC50 [3]	VEGFR2 PIC50 VEGFR-E2 assay [1]	TIE2 PIC50 TIE2-E2 assay [2]	VEGFR3 PIC50 VEGFR-3-HTRF assay [3]
CC(=O)Nc1ncc2c(-c3ccc(NS(=O)(=O)c4cccc(Cl)c4Cl)cc3)nn(C)c2n1 [Example 71]	1000 to 10000 nM	1000 to 10000 nM	100 to 1000 nM	–	–	–
1-(Chloro-trifluoromethyl-phenyl)-3-{4-[methyl-(2-morpholin-4-yl -ethylamino)-1H-pyrazolo[3,4-d]pyrimidin-3-yl]-phenyl}-urea [Example 37]	–	–	–	−− (−− = PIC50 less than 5.00)	+++ (+++ = PIC50 = 7.00 to less than 7.40)	+ (+ = PIC50 = 5.00 to less than 6.00)
2,5-Dichloro-{4-{1-methyl-6-[3-(4-methyl-piperazin-1yl) -propylamino]-1H-pyrazolo[3,4-d]pyrimidin-3-yl}-phenyl}-thiophene-3-sulfonamide [Example 66]	–	–	–	−− (−− = PIC50 less than 5.00)	+++ (+++ = PIC50 = 7.00 to less than 7.40)	−− (−− = PIC50 less than 5.00)
Cn1nc(-c2ccc(NC(=O)Nc3cc(C(F)(F)F)ccc3F)cc2)c2cnc(NCCCCCO)nc21 [Example 82]	> 10000 nM	39.8 to 100 nM	> 10000 nM	–	–	–
Cn1nc(-c2ccc(NC(=O)Nc3cc(C(F)(F)F)ccc3F)cc2)c2cnc(NCc3ccncc3)nc21 [Example 143, 1-(2-Fluoro-5-trifluoromethyl-phenyl)-3-{4-[(1-methyl-6-(pyridin-4-ylmethyl)-amino)-1H-pyrazolo[3,4-d]pyrimidin-3-yl]-phenyl} urea]	1000 to 10000 nM	100 to 1000 nM	> 10000 nM	–	–	–
Cn1nc(-c2ccc(NS(=O)(=O)c3cccc(Cl)c3Cl)cc2)c2cnc(NCCCO)nc21 [Example 112, 2,3-Dichloro-N-{4-[1-methyl-6-(3-hydroxy-propylamino)-1H-pyrazolo[3,4-d]pyrimidin-3-yl]-phenyl}-benzenesulfonamide]	1000 to 10000 nM	> 10000 nM	1000 to 10000 nM	–	–	–
CC(C)n1nc(-c2ccc(NS(=O)(=O)c3cccc(Cl)c3Cl)cc2)c2cnc(NCCN3CCOCC3)nc21 [Example 77, 2,3-Dichloro-N-{4-(1-isopropyl-6-(2-morpholin-4-yl-ether)-1H -pyrazolo[3,4-d]pyrimidin-3-yl}-phenyl}-benzenesulfonamide]	1000 to 10000 nM	100 to 1000 nM	1000 to 10000 nM	–	–	–
Cn1nc(-c2ccc(NC(=O)Nc3cc(C(F)(F)F)ccc3F)c(F)c2)c2cnc(NCCCn3ccnc3)nc21 [Example 132, 1-(2-Fluoro-5-trifluoromethyl-phenyl)-3-{2-fluoro-4-[1-methyl-6-(3-(imidazol-1-ylpropylamino)-1H-pyrazolo[3,4-d]pyrimidin-3-yl)-phenyl]} urea]	1000 to 10000 nM	≤ 39.8 nM	1000 to 10000 nM	–	–	–
CN(CCN1CCOCC1)c1ncnc2[nH]nc(-c3ccc(NC(=O)Nc4cc(C(F)(F)F)ccc4F)c(C(F)(F)F)c3)c12 [Example 56, 1-(2-Fluoro-5-trifluoromethyl-phenyl)-3-{[methyl-(2-morpholin-4-yl-ethylamino)-1H-pyrazolo[3,4-d]pyrimidin-3-yl]-(2-trifluoromethyl-phenyl)}-urea]	–	–	–	+ (+ = PIC50 = 5.00 to less than 6.00)	+ (+ = PIC50 = 5.00 to less than 6.00)	–

Now from value to compound, other results behind:

IC50 [1]	IC50 [2]	IC50 [3]	Compound	VEGFR2 PIC50 VEGFR-E2 assay [1]	TIE2 PIC50 TIE2-E2 assay [2]	VEGFR3 PIC50 VEGFR-3-HTRF assay [3]
1000 to 10000 nM	1000 to 10000 nM	1000 to 10000 nM	Cn1nc(-c2ccc(NS(=O)(=O)c3cccc(Cl)c3Cl)cc2)c2cnc(NCCCCCO)nc21 [Example 114, 2,3-Dichloro-N-{4-[1-methyl-6-(5-hydroxy-pentylamino)-1H-pyrazolo[3,4-d]pyrimidin-3-yl]-phenyl}-benzenesulfonamide]	–	–	–
1000 to 10000 nM	≤ 39.8 nM	1000 to 10000 nM	Cn1nc(-c2ccc(NC(=O)Nc3cc(C(F)(F)F)ccc3F)c(F)c2)c2cnc(NCCN3CCOCC3)nc21 [Example 49]	–	–	–
1000 to 10000 nM	39.8 to 100 nM	1000 to 10000 nM	Cn1nc(-c2ccc(NC(=O)Nc3cc(C(F)(F)F)ccc3F)cc2)c2cnc(NCCCNS(C)(=O)=O)nc21 [Example 96, N-[3-(3-{4-[3-(2-Fluoro-5-trifluoromethyl-phenyl)-ureido]-phenyl}-1-methyl-1H-pyrazolo[3,4-d]pyrimidin-6-ylamino)-propyl]-methanesulfonamide]	–	–	–
1000 to 10000 nM	> 10000 nM	100 to 1000 nM	Cn1nc(-c2ccc(NS(=O)(=O)c3cccc(Cl)c3Cl)cc2)c2cnc(NCCN3CCNC3=O)nc21 [Example 109, 2,3-Dichloro-N-(4-{1-methyl-6-[2-(2-oxo-imidazolidin-1-yl)-ethylamino]-1H-pyrazolo[3,4-d]pyrimidin-3-yl]-phenyl}-benzenesulfonamide]	–	–	–
1000 to 10000 nM	100 to 1000 nM	1000 to 10000 nM	Cn1nc(-c2ccc(NC(=O)Nc3ccc4ccccc4c3)cc2)c2cnc(NCCN3CCOCC3)nc21 [Example 39, 1-{4-[1-Methyl-6-(2-morpholin-4-yl-ethylamino)-1H-pyrazolo[3,4-d]pyrimidin-3-y]-phenyl}-3-naphthalen-2-yl-urea]	–	–	–
1000 to 10000 nM	1000 to 10000 nM	1000 to 10000 nM	Cn1nc(-c2ccc(NS(=O)(=O)c3cccc(Cl)c3Cl)cc2)c2cnc(NCCCN3CCCC3=O)nc21 [Example 67]	–	–	–
1000 to 10000 nM	39.8 to 100 nM	1000 to 10000 nM	Cn1nc(-c2ccc(NC(=O)Nc3cc(C(F)(F)F)ccc3F)cc2)c2cnc(NCCN3CCOCC3)nc21 [Example 31, 1-(2-Fluoro-5-trifluoromethyl-phenyl)-3-{4-[1-methyl-6-(2-morpholin-4-yl-ethylamino)-1H-pyrazolo[3,4-d]pyrimidin-3-yl]-phenyl}urea]	–	–	–
> 10000 nM	100 to 1000 nM	–	Cc1cc(-c2nn(C)c3nc(NCCN4CCOCC4)ncc23)ccc1NC(=O)Nc1ccc2ccccc2c1 [Example 46, 1-{2-Methyl-4-[1-methyl-6-(2-morpholin-4-yl-ethylamino)-1H -pyrazolo[3,4-d]pyrimidin-3-yl]-phenyl}-3-naphthalen-2-yl-urea]	–	–	–
> 10000 nM	100 to 1000 nM	–	Cn1nc(-c2ccc(NC(=O)Nc3ccc4ccccc4c3)c(F)c2)c2cnc(NCCN3CCOCC3)nc21 [Example 55]	–	–	–
1000 to 10000 nM	100 to 1000 nM	–	CC(=O)Nc1ncc2c(-c3ccc(NC(=O)Nc4cc(C(F)(F)F)ccc4F)cc3)nn(C)c2n1 [Example 70]	–	–	–
